Patent US11524966B1 (Valo Early Discovery, Inc., priority 2017, dated 2022)

Target: T1, USP25 (USP25-His6, Boston Biochem E-546) (Homo sapiens, UniProt Q9UHP3)
T1 construct: His6; purchased Boston Biochem E-546
T1 sequence (Q9UHP3 1-1055): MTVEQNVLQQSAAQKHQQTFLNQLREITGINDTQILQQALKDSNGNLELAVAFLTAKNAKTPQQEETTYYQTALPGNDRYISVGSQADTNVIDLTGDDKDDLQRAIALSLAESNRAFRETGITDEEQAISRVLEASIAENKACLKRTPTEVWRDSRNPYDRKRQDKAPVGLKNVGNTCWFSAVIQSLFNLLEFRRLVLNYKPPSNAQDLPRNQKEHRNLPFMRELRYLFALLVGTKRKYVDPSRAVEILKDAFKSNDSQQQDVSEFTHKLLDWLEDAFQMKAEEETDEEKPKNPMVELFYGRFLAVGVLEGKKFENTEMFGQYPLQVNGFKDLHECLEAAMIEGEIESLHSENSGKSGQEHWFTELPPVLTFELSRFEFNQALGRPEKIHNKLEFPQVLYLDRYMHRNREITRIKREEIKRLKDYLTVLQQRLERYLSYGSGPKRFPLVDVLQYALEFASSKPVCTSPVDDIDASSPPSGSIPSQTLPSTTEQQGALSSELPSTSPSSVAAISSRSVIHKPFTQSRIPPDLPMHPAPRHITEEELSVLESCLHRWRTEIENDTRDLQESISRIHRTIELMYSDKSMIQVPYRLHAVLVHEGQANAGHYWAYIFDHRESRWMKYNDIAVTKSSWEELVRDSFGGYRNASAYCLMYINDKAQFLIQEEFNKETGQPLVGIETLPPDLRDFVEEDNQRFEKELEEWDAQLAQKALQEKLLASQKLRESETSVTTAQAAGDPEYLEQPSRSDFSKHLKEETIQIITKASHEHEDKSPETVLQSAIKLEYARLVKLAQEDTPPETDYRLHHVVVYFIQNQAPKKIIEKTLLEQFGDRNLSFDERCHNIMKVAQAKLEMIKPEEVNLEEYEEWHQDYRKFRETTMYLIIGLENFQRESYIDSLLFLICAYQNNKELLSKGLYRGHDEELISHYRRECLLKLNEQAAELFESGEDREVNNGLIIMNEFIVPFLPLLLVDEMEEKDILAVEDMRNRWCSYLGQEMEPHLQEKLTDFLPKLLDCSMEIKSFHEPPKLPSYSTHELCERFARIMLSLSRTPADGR
Assay: Ubiquitin-Rhodamine 110 Assay for USP25 Activity, Example A-2
Format: biochemical
Conditions: Ubiquitin-Rhodamine 110 assay, Example A-2; read-out: USP25 A-2 IC50 range
Method in brief: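 Steps: compound dilutions (top 25 μM, 3-fold, 10 points) were preincubated 30 min with 75 pM USP25-His6; 25 nM Ub-Rh110 substrate was added under initial-velocity conditions; after 45 min at room temperature, 10 mM citric acid stopped the reaction before fluorescence reading.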

SMILES: Cc1ccc2c(N)c(C(=O)N[C@H]3CCc4nc(N5C[C@@H](N)[C@@H](C(F)F)C5)ccc4C3)sc2n1 [Example 346, 3-amino-N-[(6S)-2-[(3S,4S)-3-amino-4-(difluoromethyl)pyrrolidin-1-yl]-5,6,7,8-tetrahydroquinolin-6-yl]-6-methylthieno[2,3-b]pyridine-2-carboxamide]
- IC50: 0.2 to 2 µM

SMILES: Cc1ccc2c(N)c(C(=O)N[C@H]3CCc4nc(N5C[C@H](C(F)F)[C@@H](N)C5)ccc4C3)sc2n1 [Example 347, 3-amino-N-[(6S)-2-[(3R,4S)-3-amino-4-(difluoromethyl)pyrrolidin-1-yl]-5,6,7,8-tetrahydroquinolin-6-yl]-6-methylthieno[2,3-b]pyridine-2-carboxamide]
- IC50: 0.2 to 2 µM

SMILES: COC[C@H]1CN(c2ccc3c(n2)OC[C@H](NC(=O)c2sc4nc(C)cc(C)c4c2N)C3)C[C@H]1N [Example 349, 3-amino-N-[(3R)-7-[(3S,4S)-3-amino-4-(methoxymethyl)pyrrolidin-1-yl]-2H,3H,4H-pyrano[2,3-b]pyridin-3-yl]-4,6-dimethylthieno[2,3-b]pyridine-2-carboxamide]
- IC50: 0.2 to 2 µM

SMILES: CN[C@H]1CN(c2ccc3c(c2)OC[C@H](NC(=O)c2sc4nc(C)ccc4c2N)C3)C[C@@H]1O [Example 350, 3-amino-N-[(3R)-7-[(3S,4S)-3-hydroxy-4-(methylamino)pyrrolidin-1-yl]-3,4-dihydro-2H-1-benzopyran-3-yl]-6-methylthieno[2,3-b]pyridine-2-carboxamide]
- IC50: 0.2 to 2 µM

SMILES: CCn1ccc2cc(C(=O)N[C@H]3CCc4nc(N5C[C@H](OC)[C@@H](N)C5)ccc4C3)cnc21 [Example 353, N-[(6S)-2-[(3S,4S)-3-amino-4-methoxypyrrolidin-1-yl]-5,6,7,8-tetrahydroquinolin-6-yl]-1-ethyl-1H-pyrrolo[2,3-b]pyridine-5-carboxamide]
- IC50: > 2 µM

SMILES: Cc1cc(C)c2c(N)c(C(=O)N[C@H]3CCc4nc(N5CC6CCC(C5)N6)ccc4C3)sc2n1 [Example 354, 3-amino-N-[(6S)-2-{3,8-diazabicyclo[3.2.1]octan-3-yl}-5,6,7,8-tetrahydroquinolin-6-yl]-4,6-dimethylthieno[2,3-b]pyridine-2-carboxamide]
- IC50: 0.2 to 2 µM

SMILES: CCn1cc(Cl)c2cc(C(=O)N[C@H]3COc4c(F)c(N5CC6CCC(C5)N6)cc(F)c4C3)nnc21 [Example 355, 5-chloro-N-[(3R)-7-{3,8-diazabicyclo[3.2.1]octan-3-yl}-5,8-difluoro-3,4-dihydro-2H-1-benzopyran-3-yl]-7-ethyl-7H-pyrrolo[2,3-c]pyridazine-3-carboxamide]
- IC50: 0.2 to 2 µM

SMILES: CCn1cc(Cl)c2cc(C(=O)N[C@H]3COc4c(C#N)c(N5CC6CCC(C5)N6)cc(F)c4C3)nnc21 [Example 356, 5-chloro-N-[(3R)-8-cyano-7-{3,8-diazabicyclo[3.2.1]octan-3-yl}-5-fluoro-3,4-dihydro-2H-1-benzopyran-3-yl]-7-ethyl-7H-pyrrolo[2,3-c]pyridazine-3-carboxamide]
- IC50: 0.2 to 2 µM

SMILES: Cc1ccc2c(N)c(C(=O)N[C@H]3CCc4nc(N5C[C@H](N)[C@H](OC(C)(F)F)C5)ccc4C3)sc2n1 [Example 357, 3-amino-N-[(6S)-2-[(3S,4R)-3-amino-4-(1,1-difluoroethoxy)pyrrolidin-1-yl]-5,6,7,8-tetrahydroquinolin-6-yl]-6-methylthieno[2,3-b]pyridine-2-carboxamide]
- IC50: 0.2 to 2 µM

SMILES: Cc1ccc2c(N)c(C(=O)N[C@H]3CCc4nc(N5C[C@@H](N)[C@@H](OC(C)(F)F)C5)ccc4C3)sc2n1 [Example 358, 3-amino-N-[(6S)-2-[(3R,4S)-3-amino-4-(1,1-difluoroethoxy)pyrrolidin-1-yl]-5,6,7,8-tetrahydroquinolin-6-yl]-6-methylthieno[2,3-b]pyridine-2-carboxamide]
- IC50: > 2 µM

SMILES: Cc1ccc2c(N)c(C(=O)N[C@H]3CCc4nc(N5C[C@H](N)[C@@H](C(F)(F)F)C5)ccc4C3)sc2n1 [Example 363, 3-amino-N-[(6S)-2-[(3R,4S)-3-amino-4-(trifluoromethyl)pyrrolidin-1-yl]-5,6,7,8-tetrahydroquinolin-6-yl]-6-methylthieno[2,3-b]pyridine-2-carboxamide]
- IC50: 0.2 to 2 µM

SMILES: Cc1cnc2c(N)c(C(=O)N[C@H]3CCc4nc(N5C[C@H](N)C6(COC6)C5)ccc4C3)sc2n1 [Example 365, 7-amino-N-[(6S)-2-[(8R)-8-amino-2-oxa-6-azaspiro[3.4]octan-6-yl]-5,6,7,8-tetrahydroquinolin-6-yl]-3-methylthieno[2,3-b]pyrazine-6-carboxamide]
- IC50: 0.2 to 2 µM

SMILES: Cc1cnc2c(N)c(C(=O)N[C@H]3CCc4nc(N5C[C@@H](N)C6(COC6)C5)ccc4C3)sc2n1 [Example 366, 7-amino-N-[(6S)-2-[(8S)-8-amino-2-oxa-6-azaspiro[3.4]octan-6-yl]-5,6,7,8-tetrahydroquinolin-6-yl]-3-methylthieno[2,3-b]pyrazine-6-carboxamide]
- IC50: > 2 µM

SMILES: Cc1ccc2c(N)c(C(=O)N[C@H]3COc4cc(N5CC[C@H](N)C5)ccc4C3)sc2n1 [Example 369, 3-amino-N-[(3R)-7-[(3S)-3-aminopyrrolidin-1-yl]-3,4-dihydro-2H-1-benzopyran-3-yl]-6-methylthieno[2,3-b]pyridine-2-carboxamide]
- IC50: 0.05 to 0.2 µM

SMILES: Cc1ccc2c(N)c(C(=O)N[C@H]3CCc4nc(N5C[C@H](N)[C@]6(CCCO6)C5)ccc4C3)sc2n1 [Example 390, 3-amino-N-[(6S)-2-[(5S,9S)-9-amino-1-oxa-7-azaspiro[4.4]nonan-7-yl]-5,6,7,8-tetrahydroquinolin-6-yl]-6-methylthieno[2,3-b]pyridine-2-carboxamide]
- IC50: > 2 µM

SMILES: Cc1ccc2c(N)c(C(=O)N[C@H]3CCc4nc(N5C[C@@H](N)[C@]6(CCCO6)C5)ccc4C3)sc2n1 [Example 391, 3-amino-N-[(6S)-2-[(5S,9R)-9-amino-1-oxa-7-azaspiro[4.4]nonan-7-yl]-5,6,7,8-tetrahydroquinolin-6-yl]-6-methylthieno[2,3-b]pyridine-2-carboxamide]
- IC50: 0.2 to 2 µM

SMILES: Cc1ccc2c(N)c(C(=O)N[C@H]3CCc4nc(N5C[C@@H](N)[C@@]6(CCCO6)C5)ccc4C3)sc2n1 [Example 392, 3-amino-N-[(6S)-2-[(5R,9R)-9-amino-1-oxa-7-azaspiro[4.4]nonan-7-yl]-5,6,7,8-tetrahydroquinolin-6-yl]-6-methylthieno[2,3-b]pyridine-2-carboxamide]
- IC50: > 2 µM

SMILES: Cc1ccc2c(N)c(C(=O)N[C@H]3CCc4nc(N5C[C@H](N)[C@@]6(CCCO6)C5)ccc4C3)sc2n1 [Example 393, 3-amino-N-[(6S)-2-[(5R,9S)-9-amino-1-oxa-7-azaspiro[4.4]nonan-7-yl]-5,6,7,8-tetrahydroquinolin-6-yl]-6-methylthieno[2,3-b]pyridine-2-carboxamide]
- IC50: > 2 µM

SMILES: Cc1ccc2c(N)c(C(=O)N[C@H]3COc4cc(N5CC6CNC[C@](C)(C5)O6)cc(F)c4C3)sc2n1 [Example 413, 3-amino-N-[(3R)-5-fluoro-7-[(1R)-1-methyl-9-oxa-3,7-diazabicyclo[3.3.1]nonan-3-yl]-3,4-dihydro-2H-1-benzopyran-3-yl]-6-methylthieno[2,3-b]pyridine-2-carboxamide]
- IC50: 0.2 to 2 µM

SMILES: Cc1ccc2c(N)c(C(=O)N[C@H]3COc4cc(N5CC6CNC[C@@](C)(C5)O6)cc(F)c4C3)sc2n1 [Example 414, 3-amino-N-[(3R)-5-fluoro-7-[(1S)-1-methyl-9-oxa-3,7-diazabicyclo[3.3.1]nonan-3-yl]-3,4-dihydro-2H-1-benzopyran-3-yl]-6-methylthieno[2,3-b]pyridine-2-carboxamide]
- IC50: 0.2 to 2 µM

SMILES: CO[C@@H]1CN(c2cc3c(c(F)c2F)C[C@@H](NC(=O)c2sc4nc(C)ccc4c2N)CO3)C[C@H]1N [Example 415, 3-amino-N-[(3R)-7-[(3R,4R)-3-amino-4-methoxypyrrolidin-1-yl]-5,6-difluoro-3,4-dihydro-2H-1-benzopyran-3-yl]-6-methylthieno[2,3-b]pyridine-2-carboxamide]
- IC50: 0.2 to 2 µM

SMILES: CO[C@H]1CN(c2cc3c(c(F)c2F)C[C@@H](NC(=O)c2sc4nc(C)ccc4c2N)CO3)C[C@@H]1N [Example 416, 3-amino-N-[(3R)-7-[(3S,4S)-3-amino-4-methoxpyrrolidin-1-yl]-5,6-difluoro-3,4-dihydro-2H-1-benzopyran-3-yl]-6-methylthieno[2,3-b]pyridine-2-carboxamide]
- IC50: 0.2 to 2 µM
